From patent publication US20240336611A1 (Insilico Medicine IP Limited, priority 2021, published 2024)

Molecular target: T1, TNIK kinase [amino acid sequence (1-367), Invitrogen] (Homo sapiens, UniProt Q9UKE5)
T1 construct: purchased Invitrogen
Assay: TNIK kinase inhibition assay (Z-lyte FRET-peptide)
Format: biochemical
Conditions: 0.625 nM TNIK kinase, 2 μM Ser/Thr 7 peptide, 64 μM ATP, one hour at room temperature
Method: Z-lyte assay kit was purchased from Invitrogen. A site-specific protease recognizes and cleaves non-phosphorylated FRET-peptides. Phosphorylation of FRET-peptides suppresses cleavage by protease and will maintain FRET from donor to acceptor.
5 μl of Development Reagent A solution was then added to cleave non-phosphorylated peptide with a dilution 1:65000 in Development Buffer B. The assay plate was incubated at room temperature for another one hour and then read in the Envision plate reader (PerkinElmer).

T1 sequence (Q9UKE5 1-367): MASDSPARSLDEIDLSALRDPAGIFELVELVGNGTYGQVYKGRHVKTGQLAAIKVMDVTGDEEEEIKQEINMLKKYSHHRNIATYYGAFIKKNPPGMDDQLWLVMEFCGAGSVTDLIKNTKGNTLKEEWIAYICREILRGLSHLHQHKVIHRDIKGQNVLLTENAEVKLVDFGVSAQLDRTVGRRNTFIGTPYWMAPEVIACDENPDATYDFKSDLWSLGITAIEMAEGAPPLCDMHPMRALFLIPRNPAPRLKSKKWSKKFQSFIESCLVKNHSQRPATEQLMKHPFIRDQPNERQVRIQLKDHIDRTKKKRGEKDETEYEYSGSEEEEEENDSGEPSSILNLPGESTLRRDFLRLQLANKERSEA

Structure (SMILES)	IC50
[2H]C([2H])([2H])N1CC(c2ccc(NC(=O)c3c[nH]c(-c4c(-c5ccc(F)cc5)ncn4C([2H])(C)C)n3)nc2)C1 [Compound 118]	12 to 150 nM
CC(C)n1cnc(-c2ccc(F)cc2)c1-c1nc(C(=O)Nc2ccc(C3C[C@H]4CC[C@@H](C3)N4C)cn2)cs1 (stereo partly drawn) [Compound 60, 2-(4-(4-fluorophenyl)-1-isopropyl-1H-imidazol-5-yl)-N-(5-((1R,5S)-8-methyl-8-azabicyclo[3.2.1]octan-3-yl)pyridin-2-yl)thiazole-4-carboxamide]	1 to 12 nM
O=C(Nc1ccc(N2CCOCC2)cn1)c1coc(-c2c(-c3ccc(F)cc3)ncn2C2COC2)n1 [Compound 71, 2-(4-(4-fluorophenyl)-1-(oxetan-3-yl)-1H-imidazol-5-yl)-N-(5-morpholinopyridin-2-yl)oxazole-4-carboxamide]	> 150 nM
CN1C2CC1CN(c1ccc(NC(=O)c3c[nH]c(-c4c(-c5ccc(F)cc5)ncn4C4CC4)n3)nc1)C2 [Compound 49, 3′-cyclopropyl-5′-(4-fluorophenyl)-N-(5-(6-methyl-3,6-diazabicyclo[3.1.1]heptan-3-yl)pyridin-2-yl)-1H,3′H-[2,4′-biimidazole]-4-carboxamide]	12 to 150 nM
[2H]C([2H])([2H])N1CC(c2ccc(NC(=O)c3coc(-c4c(-c5ccc(F)cc5)ncn4C([2H])(C)C)n3)nc2)C1 [Compound 111]	12 to 150 nM
CC(C)n1cnc(-c2ccc(F)cc2)c1-c1cnc(C(=O)Nc2ccc(N3CCN(C)CC3)cc2)s1 [Compound 1, 5-(4-(4-fluorophenyl)-1-isopropyl-1H-imidazol-5-yl)-N-(4-(4-methylpiperazin-1-yl)phenyl)thiazole-2-carboxamide]	> 150 nM
CC(C)n1cnc(-c2ccc(F)cc2)c1-c1nc(C(=O)Nc2ccc(C3CCN(C)CC3)cn2)c[nH]1 [Compound 52, 5′-(4-fluorophenyl)-3′-isopropyl-N-(5-(1-methylpiperidin-4-yl)pyridin-2-yl)-1H,3′H-[2,4′-biimidazole]-4-carboxamide]	1 to 12 nM
CC(C)n1cnc(-c2ccc(F)cc2)c1-c1ncc(C(=O)Nc2ccc(N3CC4(CN(C)C4)C3)cc2)[nH]1 [Compound 20, 5′-(4-fluorophenyl)-3′-isopropyl-N-(4-(6-methyl-2,6-diazaspiro[3.3]heptan-2-yl)phenyl)-1H,3′H-[2,4′-biimidazole]-5-carboxamide]	1 to 12 nM
CC(C)c1noc(-c2ccc(F)cc2)c1-c1nc(C(=O)Nc2ccc(C3CN(C)C3)cc2F)cs1 [Compound 87, N-(2-fluoro-4-(1-methylazetidin-3-yl)phenyl)-2-(5-(4-fluorophenyl)-3-isopropylisoxazol-4-yl)thiazole-4-carboxamide]	1 to 12 nM
CC(C)n1cnc(-c2ccc(F)cc2)c1-c1nc(C(=O)Nc2ccc(N3CCN(C)CC3)c(F)c2)c[nH]1 [Compound 16, N-(3-fluoro-4-(4-methylpiperazin-1-yl)phenyl)-5′-(4-fluorophenyl)-3′-isopropyl-1H,3′H-[2,4′-biimidazole]-4-carboxamide]	1 to 12 nM
O=C(Nc1ccc(N2CCC2)cn1)c1c[nH]c(-c2c(-c3ccc(F)cc3)ncn2C2CC(F)(F)C2)n1 [Compound 73, N-(5-(azetidin-1-yl)pyridin-2-yl)-3′-(3,3-difluorocyclobutyl)-5′-(4-fluorophenyl)-1H,3′H-[2,4′-biimidazole]-4-carboxamide]	12 to 150 nM
CC(C)c1onc(-c2ccc(F)cc2)c1-c1nc(C(=O)Nc2ccc(N3CC4CC(C3)N4C)cc2F)co1 [Compound 105, N-(2-fluoro-4-(6-methyl-3,6-diazabicyclo[3.1.1]heptan-3-yl)phenyl)-2-(3-(4-fluorophenyl)-5-isopropylisoxazol-4-yl)oxazole-4-carboxamide]	12 to 150 nM
O=C(Nc1ccc(N2CCC2)cn1)c1coc(-c2c(-c3ccc(F)cc3)ncn2C2CC(F)(F)C2)n1 [Compound 69, N-(5-(azetidin-1-yl)pyridin-2-yl)-2-(1-(3,3-difluorocyclobutyl)-4-(4-fluorophenyl)-1H-imidazol-5-yl)oxazole-4-carboxamide]	> 150 nM
